Assay results reported in patent publication US10017507B2, “Diaza-benzofluoranthrene compounds” (HARBIN PHARMACEUTICAL GROUP CO., LTD. GENERAL …, priority 2015, dated 2018).

What was measured:
[1] = Comparison of pharmacokinetics in Beagle dogs; format: in vivo; conditions: for clearance / half-life / bioavailability: male, dog, plasma; for half-life: read-out: Half-life period (converted)
Method: Test 2: Comparison of Pharmacokinetics in Beagle Dogs
In this study, male Beagle dogs were given the compounds of the examples and vinpocetine (as a control compound) by intravenous injection or oral administration, respectively, then the drug concentration in plasma at different time points was determined by the LC/MS/MS method, so as to investigate the pharmacokinetic characteristics of the two test drugs in Beagle dogs.
Eight healthy adult Beagle dogs with a weight of 7.0 to 10.83 kg (purchased from Beijing Marshall Biotechnology Co., Ltd.) were selected. The formulation for intravenous injection group was DMSO: PEG400: water=5:20:75. A solvent was added to the test compound which had been accurately weighed, after vortex oscillation and ultrasound, a clear solution with a final concentration of 1.0 mg/mL was obtained. The solution was filtered with a filter membrane of 0.22 μm and stored at room temperature for use. The formulation for oral administration group was PEG 400: Tween 80: H2O=40:10:50. A solvent was added to the test compound which had been accurately weighed, after vortex oscillation and ultrasound, a clear solution with a final concentration of 1.5 mg/mL was obtained. The formulations for both the intravenous injection and the oral administration were formulated on the day of administration. The intravenous dose was 1.0 mg/kg, and the oral dose was 3.0 mg/kg. The whole blood for each test compound was respectively taken at 0.083 (for intravenous injection only), 0.25, 0.5, 1, 2, 4, 6, 8 and 24 hours after administration. The whole blood was centrifuged (3000 g, 15 min, 4° C.) to obtain the plasma. The drug concentration in each plasma sample was determined by LC/MS/MS method. The data about drug concentration in plasma was processed by WinNonlin™ Version 6.3 (Pharsight, Mountain View, Calif.) software, using a non-compartmental model, and the pharmacokinetic parameters were calculated by using the linear-logarithmic trapezoidal method.

PDE1A = molecular target: T1, PDE1A (Homo sapiens, UniProt P54750); assay: In vitro detection of phosphodiesterase (PDE): PDE1A enzyme activity by fluorescence polarization immunoassay; format: biochemical; conditions: human-derived enzyme, cAMP or cGMP substrate; read-out: IC50s for PDE1
T1 construct: purchased SignalChem
Procedure, shortened: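 Human PDE1A (enzyme solution 3 pM) was preincubated 10 min at RT with compound in 10 mM Tris-HCl pH 7.5, 5 mM MgCl2, 0.01% Brij 35, 1 mM DTT, 1% DMSO, with Ca2+-calmodulin cofactor. Reaction ran 1 h at RT on […] cAMP or cGMP, then 90 min with antibody/tracer. FP at Ex/Em 620/688 was converted to AMP/GMP via standard curve to give IC50.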

[2] = system: pentylenetetrazole-kindling model of epilepsy; assay: Inhibition effect on pentylenetetrazole-kindling model of epilepsy in cynomolgus monkey; format: in vivo; conditions: 10 mg/kg; for latency prolonged than the Vehicle group / latency, relative increase versus Vehicle group / lasting time of convulsions shortened compared with the Vehicle Group / lasting time of convulsions, relative reduction versus Vehicle Group / times of clonic and tonic convulsion reduced compared with the Vehicle Group / times of clonic and tonic convulsion, relative reduction versus Vehicle Group: versus Vehicle group; for latency for the onset of epilepsy seizure: continuous administration of 8 days, pentylenetetrazole 40 mg/kg s.c.; for latency for the onset of epilepsy seizure / lasting time of clonic convulsions and tonic convulsions / times of clonic convulsion and tonic convulsion: Mean±SEM; for lasting time of clonic convulsions and tonic convulsions: pentylenetetrazole-kindled; for times of clonic convulsion and tonic convulsion: within 24 hours after pentylenetetrazol
Excerpt: Test 3: Inhibition Effect on Pentylenetetrazole-Kindling Model of Epilepsy in Cynomolgus Monkey In this test, six male cynomolgus monkeys were selected, and each monkey was intragastrically administrated by nasal feeding. Besides pentylenetetrazole which was administrated by subcutaneous injection, the compound of Example 29 and carbamazepine were consecutively administered for 8 days, respectively. The monkeys were respectively given a solvent prior to the first administration, and were injected subcutaneously with pentylenetetrazole immediately after the last administration. The administration interval between two tests was about 10 days. Pentylenetetrazine was administered once to induce epilepsy prior to the first administration of the compound of Example 29. The dosage was calculated according to the latest weight of the animal, and the date of first administration was designated as Day 1. Surgical procedure: the animals were fed adaptively for at least one week in feeding facilities, and then they were anesthetized during preoperative preparation according to the company standards. The main operation procedures were as follows: cutting the head skin, fully exposing the skull, stripping the periosteum, and cleaning the skull surface with a dry absorbent cotton; drilling 2 holes on the skull of the cynomolgus monkey with cranial drill, implanting a brain electrode, and fixing it with dental cement; then burying two myoelectric electrodes into the neck muscles of the cynomolgus monkey, and burying eye-electric electrodes into the bilateral eye muscles, fixing the implant body in the abdominal muscle layer. Postoperative care was performed according to the company standards. The raw data was collected by Ponemah of DSI system, and analyzed and revised by Neuronscore. The data was shown by mean±standard error (Mean±SEM), statistical analysis was performed by t-test and ANOVA. P<0.05 indicated a significant difference, P<0.01 indicated a very significant difference, P<0.001 indicated an extremely significant difference. The characteristics of electroencephalic response and electroencephalic energy for pentylenetetrazole-kindling epilepsy were observed and analyzed, and then a comparison was made between Example 29 and carbamazepine in terms of the latency for the onset of epilepsy seizure, and the times and lasting time of clonic convulsions and tonic convulsions in cynomolgus monkey pentylenetetrazole-kindling model, so as to compare the pharmacodynamic inhibitory effect of Example 29 and carbamazepine on cynomolgus monkey pentylenetetrazole-kindling model. After the cynomolgus monkeys were injected subcutaneously with 40 mg/kg pentylenetetole on the back and were induced epilepsy-like behaviors, the electroencephalic response, electromyogrphic response and locomotor activity were detected by DSI wireless remote sensing signal recording system. […] The behaviors were divided into paroxysmal activity, clonic convulsion and tonic convulsions according to the status of epilepsy. The changes of electroencephalic energy within 4-24 Hz were statistically analyzed when cynomolgus monkeys suffered epileptic seizure within 24 hours after injection of pentylenetetrazole.

CCOC(=O)C1=C[C@]2(CC)CCCN3CCc4c(n1c1ccccc41)[C@@H]32 [Vinpocetine, reference compound]
area under the concentration-time curve (0-inf) ([1]; intravenous injection 1 mg/kg): 0.588 µM·h
clearance ([1]; intravenous injection 1 mg/kg): 80.5 mL/min/kg
half-life ([1]; intravenous injection 1 mg/kg): 6.03 h
bioavailability ([1]; oral administration 3 mg/kg): 12.3%
Peak concentration ([1]; oral administration 3 mg/kg): 142 nM
Time to Peak ([1]; oral administration 3 mg/kg): 0.5 h
area under the concentration-time curve (0-inf) ([1]; oral administration 3 mg/kg): 0.216 µM·h

CC[C@@]12C=C(c3nc(C)c(C)s3)n3c4c(c5ccccc53)CCN(CCC1)[C@H]42 [Example 40, 2-((4^1S,13aS)-13a-ethyl-2,3,4^1,5,6,13a-hexahydro-1H-indolo[3,2,1-de]pyrido[3,2,1-ij][1,5]naphthyridin-12-yl)-4,5-dimethylthiazole]
IC50 (PDE1A): 1 to 20 µM

CC[C@@]12C=C(c3ncc[nH]3)n3c4c(c5ccccc53)CCN(CCC1)[C@H]42 [Example 3, (4^1S,13aS)-13a-ethyl-12-(1H-imidazol-2-yl)-2,3,4^1,5,6,13a-hexahydro-1H-indolo[3,2,1-de]pyrido[3,2,1-ij][1,5]naphthyridine]
IC50 (PDE1A): > 100 µM

CC[C@@]12C=C(c3nc(C)no3)n3c4c(c5ccccc53)CCN(CCC1)[C@H]42 [Example 29, 5-((4^1S,13aS)-13a-ethyl-2,3,4^1,5,6,13a-hexahydro-1H-indolo[3,2,1-de]pyrido[3,2,1-ij][1,5]naphthyridin-12-yl)-3-methyl-1,2,4-oxadiazole]
IC50 (PDE1A): 1 to 20 µM
area under the concentration-time curve (0-inf) ([1]; intravenous injection 1 mg/kg): 4.04 µM·h
clearance ([1]; intravenous injection 1 mg/kg): 12 mL/min/kg
half-life ([1]; intravenous injection 1 mg/kg): 9.42 h
bioavailability ([1]; oral administration 3 mg/kg): 37.5%
Peak concentration ([1]; oral administration 3 mg/kg): 1299 nM
Time to Peak ([1]; oral administration 3 mg/kg): 1.0 h
area under the concentration-time curve (0-inf) ([1]; oral administration 3 mg/kg): 4.545 µM·h
half-life longer than that of vinpocetine ([1]; relative to vinpocetine): 56%
plasma clearance lower than that of vinpocetine ([1]; relative to vinpocetine): about 85%
latency prolonged than the Vehicle group ([2]; 8 days): 39.24 min
latency, relative increase versus Vehicle group ([2]; 8 days): 160%
latency prolonged than the carbamazepine group ([2]; 8 days, versus carbamazepine group): 18.9 min
latency for the onset of epilepsy seizure [2]: 64.10 ± 13.21 min
lasting time of clonic convulsions and tonic convulsions [2]: 2.61 ± 0.99 min
lasting time of convulsions shortened compared with the Vehicle Group [2]: 9.07 min
lasting time of convulsions, relative reduction versus Vehicle Group [2]: 78%
lasting time of convulsions shortened compared with the carbamazepine group ([2]; versus carbamazepine group): about 2.1 min
times of clonic convulsion and tonic convulsion [2]: 25.7±7.07
times of clonic and tonic convulsion reduced compared with the Vehicle Group ([2]; within 24 hours): about 82 times
times of clonic and tonic convulsion, relative reduction versus Vehicle Group ([2]; within 24 hours): 76%
times of clonic and tonic convulsion reduced compared with the carbamazepine group ([2]; within 24 hours, versus carbamazepine group): about 14 times

CC[C@@]12C=C(c3nc(C)c(C)o3)n3c4c(c5cc(S(=O)(=O)NCCCOC)ccc53)CCN(CCC1)[C@H]42 [Example 72, (4^1S,13aS)-12-(4,5-dimethyloxazol-2-yl)-13a-ethyl-N-(3-methoxylpropyl)-2,3,4^1,5,6,13a-hexahydro-1H-indolo[3,2,1-de]pyrido[3,2,1-ij][1,5]naphthyridin-9-sulfonamide]
IC50 (PDE1A): 20 to 100 µM

CC[C@@]12C=C(c3nc(C)c(C(N)=O)o3)n3c4c(c5ccccc53)CCN(CCC1)[C@H]42 [Example 62, 2-((4^1S,13aS)-13a-ethyl-2,3,4^1,5,6,13a-hexahydro-1H-indolo[3,2,1-de]pyrido[3,2,1-ij][1,5]naphthyridin-12-yl)-4-methyloxazole-5-carboxamide]
IC50 (PDE1A): 1 to 20 µM

CC[C@@]12C=C(c3nnc(C)o3)n3c4c(c5ccccc53)CCN(CCC1)[C@H]42 [Example 17, 2-((4^1S,13aS)-13a-ethyl-2,3,4^1,5,6,13a-hexahydro-1H-indolo[3,2,1-de]pyrido[3,2,1-ij][1,5]naphthyridin-12-yl)-5-methyl-1,3,4-oxadiazole]
IC50 (PDE1A): 1 to 20 µM

CC[C@@]12C=C(c3nc(C)no3)n3c4c(c5c(S(=O)(=O)NC)cccc53)CCN(CCC1)[C@H]42 [Example 82, (4^1S,13aS)-13a-ethyl-N-methyl-12-(3-methyl-1,2,4-oxadiazol-5-yl)-2,3,4^1,5,6,13a-hexahydro-1H-indolo[3,2,1-de]pyrido[3,2,1-ij][1,5]naphthyridin-7-sulfonamide]
IC50 (PDE1A): 20 to 100 µM

NC(=O)N1c2ccccc2C=Cc2ccccc21 [carbamazepine, reference compound]
latency prolonged than the Vehicle group ([2]; 8 days): 20.34 min
latency, relative increase versus Vehicle group ([2]; 8 days): 81%
latency for the onset of epilepsy seizure [2]: 45.20 ± 9.11 min
lasting time of clonic convulsions and tonic convulsions [2]: 4.71 ± 2.35 min
lasting time of convulsions shortened compared with the Vehicle Group [2]: 6.97 min
lasting time of convulsions, relative reduction versus Vehicle Group [2]: 60%
times of clonic convulsion and tonic convulsion [2]: 39.20±14.92
times of clonic and tonic convulsion reduced compared with the Vehicle Group ([2]; within 24 hours): about 68 times
times of clonic and tonic convulsion, relative reduction versus Vehicle Group ([2]; within 24 hours): 63%

CC[C@@]12C=C(c3nnco3)n3c4c(c5ccccc53)CCN(CCC1)[C@H]42 [Example 15, 2-((4^1S,13aS)-13a-ethyl-2,3,4^1,5,6,13a-hexahydro-1H-indolo[3,2,1-de]pyrido[3,2,1-ij][1,5]naphthyridin-12-yl)-1,3,4-oxadiazole]
IC50 (PDE1A): > 100 µM
